In patent publication US20230060873A1, “COMPOUNDS AND METHODS FOR FORMING ION CHANNELS IN BIOLOGICAL MEMBRANES” (Washington University, priority 2021, published 2023):

Columns and labels:
[1] = system: B. subtilis membrane; assay: DiSC3(5) depolarization assay, lariat ethers; assay type: cell-based, Bacillus subtilis; settings: for DiSC3(5) release: 2 μM, cation-free dextrose solution
Protocol: Dialkylated lariat ethers LEC6-LEC14 were then tested for their ability to depolarize a B. subtilis membrane using the fluorescent dye 3,3-dipropylthiadicarbocyanine (DiSC3(5)), which undergoes membrane voltage-dependent partitioning between the intracellular and the extracellular medium. FIGS. 23-31 show the time course of the DiSC3(5) fluorescence due to the activity of dialkylated lariat ethers with alkyl chains 6 to 14 carbons in length. The experiment was performed in a NMDG-MeSO3 solution (100 mM NMDG, 10 mM HEPES, pH adjusted to 7.4 with methanesulfonic acid). The events are: t1, addition of dye; t2, addition of B. subtilis; t3, addition of a 2 M KCl or a 2 M NMDG-Cl solution up to a final concentration of 60 mM; t4, addition of dialkylated lariat ether up to 2 μM. Control experiments were performed that were similar to the two previously described experiments, with the exception that additional NMDG-MeSO3 solution without cells was added at timepoint t2. The experiments were normalized relative to the final fluorescence intensity in the control experiments, as described below.
To conduct the experiments shown in FIGS. 23-31, a 2-mL liquid culture of B. subtilis cells was grown at 37° C. in LB media until OD600=0.600, and then collected by centrifugation at 2000 rpm during 3 min. The bacteria were washed once in NMDG-MeSO3 solution (100 mM NMDG, 10 mM HEPES, pH adjusted to 7.4 with methanesulfonic acid) or dextrose solution (200 mM dextrose, 10 mM Tris, pH adjusted to 7.4 with HCl) depending on the experiment. The centrifugation step was repeated and the bacteria were resuspended until OD600=1.0 in the same solution. The working dye solution was a 200 μM solution of DiSC3(5) (3,3′-dipropylthiadicarbocyanine iodide; Tokyo Chemical Industry) in DMSO. […] After 150 sec (timepoint t3, 250 sec) the fluorescence stabilized to a minimum intensity and 100 μL of 2M NMDG-Cl, 2M NaCl or 2 M KCl solution was added to reach a about 60 mM final concentration of the salt. […] Fluorescence intensity was recorded each second using a Horiba Fluoromax 4 spectrometer (excitation wavelength=640 nm; emission wavelength=670 nm). […] To normalize the fluorescence, experiments in the same conditions but without adding bacteria were performed, normalization was done by dividing the fluorescence by the final fluorescence level of these experiments.
Cell hyperpolarization (more negatively charged inside the cell) results in an uptake of the dye, while cell membrane depolarization (more positively charged inside the cell) results in a release of the dye. The accumulation of the dye in the interior of the cell can be detected by a decrease in fluorescence due to self-quenching, which enables the dye to be utilized as an indirect reporter of changes in cell membrane voltage. […]

[2] = system: B. subtilis cells; assay: Lactate dehydrogenase release (resofurin fluorescence), lariat ether; assay type: cell-based, Bacillus subtilis; settings: 2 μM, 37° C, lithium lactate/NAD+ solution
Excerpt: A well-established assay was utilized to measure cell lysis by monitoring the release of the enzyme lactate dehydrogenase (LDH), which is ubiquitous in the cytoplasm of all cell types. The tetrameric active form of LDH catalyzes the final step of the glycolysis in B. subtilis and has a molecular weight of approximately 146 kDa in, with a nearly globular shape of an approximated radius of 80 Å (PDB ID: 3PQD). […] LDH couples two redox reactions, the first involving the interconversion of pyruvate (oxidized) and L-lactate (reduced) and the second, the interconversion of NAD^+ (oxidized) and NADH (reduced). The NADH oxidation can be coupled to the diaphorase-catalyzed […] of resazurin to resofurin, which is highly fluorescent. When the concentrations of L-lactate, NAD^+, diaphorase, and resazurin are saturated, the rate of increase in the resofurin fluorescence is limited only by the amount of available LDH in the medium.
To prepare the experiment, a 2-mL liquid culture of B. subtilis cells was grown at 37° C. in media until OD600=0.600, and then collected by centrifugation at 2000 rpm during 3 min. […] Fluorescence intensity was recorded each second using a Horiba Fluoromax 4 spectrometer (excitation wavelength=550 nm; emission wavelength=583 nm). […] To normalize, the fluorescence was divided by the fluorescence level just before timepoint t4. […]

CCCCCCCCCCN1CCOCCOCCN(CCCCCCCCCC)CCOCCOCC1 [LEC10, Didecyl diaza(18-crown-6)]
relative DiSC3(5) release in the presence of different cations ([1]; 2 μM compound, 60 mM KCl, NaCl or NMDG-Cl, NMDG-MeSO3 solution, 25° C): no significant differences
DiSC3(5) release ([1]; 60 mM KCl added): large DiSC3(5) release
DiSC3(5) release ([1]; absence of any external cation): same effect was also observed
resofurin fluorescence (LDH release) [2]: rapid rise in the fluorescence
